Structures can show the parent of a compound that is named as a salt.
System: C3-PMP22 transgenic mice (B6.Cg-Tg(PMP22)C3Fbas/J)
Assay: Mouse model of Charcot-Marie-Tooth 1A (CMT1A)
Assay type: in vivo
From the text: Compound 163 was selected as an example compound of this invention to be evaluated in this model. This model (run by In vivex SAS, France) uses C3-PMP22 transgenic mice (B6·Cg-Tg(PMP22)C3Fbas/J) which express three copies of a wild-type human peripheral myelin protein 22 (PMP22) gene. These mice present an age-dependent demyelinating neuropathy characterized by predominantly distal loss of strength and sensation. C3-PMP mice show no overt clinical signs at 3 weeks and develop mild neuromuscular impairment in an age-dependent manner. They have stable, low nerve conduction velocities similar to adults with human CMT1A. Myelination is delayed in these mice, and they contain reduced numbers of myelinated fibres at 3 weeks of age.
• Animal characteristics: • Sex/Species/Strain: B6.Cg-Tg(PMP22)C3Fbas/JMale • Age: 3 weeks old • Supplier: Jackson Laboratory (USA) • Approximate weight at initiation of treatment: 19.0 g±2.5 g • Animal number: 6 mice per group • Animal identification: At the beginning of the study, animals were identified with a number on the tail. […] Clinical signs and mortality were recorded daily. Body weight was determined twice a week. • Study Outline: • Dose: 30 mg/kg • Administration: Oral gavage • Readouts: • i) Rotarod (neuromuscular performance) • ii) Sciatic nerve electrophysiology (EMG) • iii) PMP22 analysis by western blot • iv) Histology of sciatic nerve • Experimental time duration: Readouts measures at 1 and 2 months old. • Baseline rotarod and EMG readouts at 1 month old • Rotarod and EMG readouts at 2 months old • Western blot for PMP22 and histopathology of sciatic nerve at 2 months old • Vehicle used for test Compound 163: 10% DMSO/5% Cremophor R H 40 and 85% of 10% HP-β-CD in water (v/v) • Vehicle control group: vehicle only (non-treated control) • Statistics: Statistical analyses were performed using Prism software. A probability less than 5% (p<0.05) was considered as significant.
Sciatic nerve electrophysiology. Electromyography was performed on mice anesthetized with ketamine/xylazine mixture. A pair of steel needle electrodes (AD Instruments, MLA1302) were placed subcutaneously along the nerve at the sciatic notch (proximal stimulation). A second pair of electrodes were placed along the tibial nerve above the ankle (distal stimulation). Supramaximal square-wave pulses, lasting 10 ms at 1 mA were delivered using a PowerLab 26T (AD Instruments). Compound muscle action potential (CMAP) was recorded from the intrinsic foot muscles using steel electrodes. Both amplitudes and latencies of CMAP were determined. The distance between the 2 sites of stimulation was measured alongside the skin surface with fully extended legs, and nerve conduction velocities (NCVs) were calculated automatically from sciatic nerve latency measurements using Excel.
Rotarod. A rotating rod apparatus (Bioseb, France) was used to measure neuromuscular coordination and balance. Mice were first given a pretraining trial to familiarize them with the rotating rod. […] Each animal underwent 3 trials a day. For each day, values from the 3 trials were averaged for each animal, and then averaged for each group.
After electrophysiology analysis and animal sacrifice, the left sciatic nerve of all animals were sampled, solubilized in 4° C. RIPA lysis buffer completed with protease inhibitors (Fisher Scientific, France), sonicated three times during 10 s on ice (Microson ultrasonic cell disruptorXL, Microsonic) and centrifuged for 30 min at 10,000 rpm at 4° C. 50 μL of the supernatant was sampled and total protein was quantified by NanoDrop using bovine serum albumin dilutions as standard. Then, ten micrograms of protein samples were denatured using Laemmli/β-mercaptoethanol (Merck, S3401) incubation at 95° C. during 10 minutes, separated on a denaturing 10% SDS-polyacrylamide gel and transferred onto nitrocellulose membranes. Membranes were blocked for 60 min with 5 mL of Licor Blocking Buffer. […]

[1] = CMT1A mice at 2 months old, 30 mg/kg oral gavage twice a day during one month
[2] = sciatic nerve histology, CMT1A mice at 2 months old, 30 mg/kg oral gavage twice a day

CC(C)N(C(=O)c1csc(-c2cnn(-c3ccccc3)c2)n1)C1CCNCC1 [Compound 163, N-isopropyl-2-(1-phenyl-1H-pyrazol-4-yl)-N-(piperidin-4-yl)thiazole-4-carboxamide hydrochloride]
increase in CMAP amplitude compared to the vehicle group [1]: 86%
increase in mean rotarod latency compared to the vehicle group [1]: 133%
increase in NCV compared to the vehicle group (CMT1A mice at 2 months old, 30 mg/kg oral gavage twice a day, not statistically significant): 94%
differences on body weight between groups (CMT1A mice, 30 mg/kg oral gavage twice a day): No significant differences
decrease in the g-ratio compared to the vehicle group [2]: 22%
increase in the number of myelinating axons compared to the vehicle group [2]: 64%
increase in the axonal diameter compared to the vehicle group (sciatic nerve histology, CMT1A mice at 2 months old, 30 mg/kg oral gavage twice a day, not statistically significant): 45%
decrease in the level of PMP22 compared to the vehicle group (sciatic nerve western blot, CMT1A mice at 2 months old, 30 mg/kg oral gavage twice a day): 33%
